Experimental data taken from ChEMBL document CHEMBL5465560, “Selectivity Literature for EUbOPEN Chemogenomic Library” (2024).
One block for each compound: values may come before it.

Experiments:
[1] = target: Serine/threonine-protein kinase PLK1 (Homo sapiens, UniProt P53350); test: Selectivity interaction (KinomeScan (DiscoverX)) EUB0001049a PLK1; settings: at 1 µM
[2] = target: ALK tyrosine kinase receptor (Homo sapiens, UniProt Q9UM73); test: Selectivity interaction (Kinase panel (33PanQinase(R) Activity Assay)) EUB0000877a ALK
[3] = target: Sodium-dependent serotonin transporter (Homo sapiens, UniProt P31645); test: Selectivity interaction (Serotonin transporter site assay, human recombinant ) EUB0000877a SLC6A4
[4] = target: Mitogen-activated protein kinase 7 (Homo sapiens) (UniProt Q13164); test: Selectivity interaction (KinomeScan (DiscoverX)) EUB0001079a MAPK7; settings: at 1 µM
[5] = target: T1, Serine/threonine-protein kinase 36 (Homo sapiens) (UniProt Q9NRP7); test: Selectivity interaction (KinomeScan (DiscoverX)) EUB0001079a STK36; settings: at 1 µM
T1 sequence (whole entry): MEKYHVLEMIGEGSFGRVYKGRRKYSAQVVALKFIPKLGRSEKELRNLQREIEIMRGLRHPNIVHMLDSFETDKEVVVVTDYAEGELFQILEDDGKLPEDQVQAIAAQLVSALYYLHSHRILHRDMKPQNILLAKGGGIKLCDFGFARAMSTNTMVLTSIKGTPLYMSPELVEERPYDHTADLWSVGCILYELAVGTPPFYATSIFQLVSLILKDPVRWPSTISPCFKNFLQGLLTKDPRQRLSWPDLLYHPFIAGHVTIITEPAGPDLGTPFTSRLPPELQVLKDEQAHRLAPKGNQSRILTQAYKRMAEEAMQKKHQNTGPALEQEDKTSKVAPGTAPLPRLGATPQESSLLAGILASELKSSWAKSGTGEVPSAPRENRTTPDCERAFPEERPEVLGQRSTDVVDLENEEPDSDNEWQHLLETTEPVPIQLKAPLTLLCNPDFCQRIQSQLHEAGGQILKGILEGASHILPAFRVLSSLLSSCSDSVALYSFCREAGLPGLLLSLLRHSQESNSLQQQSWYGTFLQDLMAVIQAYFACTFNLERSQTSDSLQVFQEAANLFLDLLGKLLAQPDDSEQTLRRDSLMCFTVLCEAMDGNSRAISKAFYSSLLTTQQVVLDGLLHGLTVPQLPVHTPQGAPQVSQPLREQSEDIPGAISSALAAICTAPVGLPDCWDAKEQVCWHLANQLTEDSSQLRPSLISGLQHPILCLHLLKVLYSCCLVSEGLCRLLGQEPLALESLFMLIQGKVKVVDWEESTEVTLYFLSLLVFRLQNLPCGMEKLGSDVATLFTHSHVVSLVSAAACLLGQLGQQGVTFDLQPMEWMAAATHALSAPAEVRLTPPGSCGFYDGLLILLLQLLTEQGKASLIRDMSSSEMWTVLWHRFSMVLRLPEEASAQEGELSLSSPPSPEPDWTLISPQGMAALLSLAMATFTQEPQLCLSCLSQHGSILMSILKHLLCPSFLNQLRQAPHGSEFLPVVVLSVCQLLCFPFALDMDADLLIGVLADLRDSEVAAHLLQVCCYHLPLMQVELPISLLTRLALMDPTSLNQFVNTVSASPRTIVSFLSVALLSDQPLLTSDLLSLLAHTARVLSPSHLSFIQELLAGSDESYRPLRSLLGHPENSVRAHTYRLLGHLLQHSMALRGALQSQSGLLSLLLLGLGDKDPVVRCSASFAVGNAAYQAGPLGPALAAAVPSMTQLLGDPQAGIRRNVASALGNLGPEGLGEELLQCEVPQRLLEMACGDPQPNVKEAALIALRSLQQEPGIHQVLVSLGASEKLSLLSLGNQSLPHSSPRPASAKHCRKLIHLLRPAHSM

[6] = target: Tyrosine-protein kinase BTK (Homo sapiens, UniProt Q06187); test: Selectivity interaction (KinomeScan (DiscoverX)) EUB0001619a BTK; settings: at 1 µM
[7] = target: T2, Interleukin-1 receptor-associated kinase 4 (Homo sapiens) (UniProt Q9NWZ3); test: Selectivity interaction (KinomeScan (DiscoverX)) EUB0000618a IRAK4; settings: at 10 µM
T2 sequence (whole entry): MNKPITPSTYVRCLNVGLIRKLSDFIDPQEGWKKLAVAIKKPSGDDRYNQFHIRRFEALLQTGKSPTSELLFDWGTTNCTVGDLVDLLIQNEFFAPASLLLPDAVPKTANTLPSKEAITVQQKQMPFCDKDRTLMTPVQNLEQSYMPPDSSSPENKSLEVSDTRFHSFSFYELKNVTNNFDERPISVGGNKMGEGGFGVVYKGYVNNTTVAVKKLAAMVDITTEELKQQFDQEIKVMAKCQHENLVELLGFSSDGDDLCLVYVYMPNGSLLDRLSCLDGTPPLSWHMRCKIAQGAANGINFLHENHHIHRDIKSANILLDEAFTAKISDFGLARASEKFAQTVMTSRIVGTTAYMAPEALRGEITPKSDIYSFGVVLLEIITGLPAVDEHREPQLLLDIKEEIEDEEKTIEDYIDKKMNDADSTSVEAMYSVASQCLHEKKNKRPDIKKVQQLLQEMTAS

[8] = target: Casein kinase I isoform gamma-1 (Homo sapiens) (UniProt Q9HCP0); test: Selectivity interaction (Kinase panel (KiNativ target engagement assay in Jurkat cells)) EUB0001635a CSNK1G1; type: cell-based; settings: at 1 µM
Chain of Casein kinase I isoform gamma-1 (Homo sapiens) (Q9HCP0 whole entry, looked up, canonical isoform): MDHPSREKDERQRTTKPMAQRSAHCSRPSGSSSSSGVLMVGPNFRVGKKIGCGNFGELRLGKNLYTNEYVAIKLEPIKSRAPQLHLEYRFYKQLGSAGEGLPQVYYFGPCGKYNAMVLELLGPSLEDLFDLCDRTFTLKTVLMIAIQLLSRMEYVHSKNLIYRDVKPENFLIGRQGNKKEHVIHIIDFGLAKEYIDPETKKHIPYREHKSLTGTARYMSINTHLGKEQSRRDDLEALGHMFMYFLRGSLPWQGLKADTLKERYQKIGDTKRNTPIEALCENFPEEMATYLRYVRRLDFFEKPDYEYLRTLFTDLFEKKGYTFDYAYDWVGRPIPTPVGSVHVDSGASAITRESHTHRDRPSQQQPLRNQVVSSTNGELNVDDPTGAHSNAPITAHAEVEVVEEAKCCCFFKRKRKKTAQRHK

Chain of ALK tyrosine kinase receptor (Q9UM73 whole entry): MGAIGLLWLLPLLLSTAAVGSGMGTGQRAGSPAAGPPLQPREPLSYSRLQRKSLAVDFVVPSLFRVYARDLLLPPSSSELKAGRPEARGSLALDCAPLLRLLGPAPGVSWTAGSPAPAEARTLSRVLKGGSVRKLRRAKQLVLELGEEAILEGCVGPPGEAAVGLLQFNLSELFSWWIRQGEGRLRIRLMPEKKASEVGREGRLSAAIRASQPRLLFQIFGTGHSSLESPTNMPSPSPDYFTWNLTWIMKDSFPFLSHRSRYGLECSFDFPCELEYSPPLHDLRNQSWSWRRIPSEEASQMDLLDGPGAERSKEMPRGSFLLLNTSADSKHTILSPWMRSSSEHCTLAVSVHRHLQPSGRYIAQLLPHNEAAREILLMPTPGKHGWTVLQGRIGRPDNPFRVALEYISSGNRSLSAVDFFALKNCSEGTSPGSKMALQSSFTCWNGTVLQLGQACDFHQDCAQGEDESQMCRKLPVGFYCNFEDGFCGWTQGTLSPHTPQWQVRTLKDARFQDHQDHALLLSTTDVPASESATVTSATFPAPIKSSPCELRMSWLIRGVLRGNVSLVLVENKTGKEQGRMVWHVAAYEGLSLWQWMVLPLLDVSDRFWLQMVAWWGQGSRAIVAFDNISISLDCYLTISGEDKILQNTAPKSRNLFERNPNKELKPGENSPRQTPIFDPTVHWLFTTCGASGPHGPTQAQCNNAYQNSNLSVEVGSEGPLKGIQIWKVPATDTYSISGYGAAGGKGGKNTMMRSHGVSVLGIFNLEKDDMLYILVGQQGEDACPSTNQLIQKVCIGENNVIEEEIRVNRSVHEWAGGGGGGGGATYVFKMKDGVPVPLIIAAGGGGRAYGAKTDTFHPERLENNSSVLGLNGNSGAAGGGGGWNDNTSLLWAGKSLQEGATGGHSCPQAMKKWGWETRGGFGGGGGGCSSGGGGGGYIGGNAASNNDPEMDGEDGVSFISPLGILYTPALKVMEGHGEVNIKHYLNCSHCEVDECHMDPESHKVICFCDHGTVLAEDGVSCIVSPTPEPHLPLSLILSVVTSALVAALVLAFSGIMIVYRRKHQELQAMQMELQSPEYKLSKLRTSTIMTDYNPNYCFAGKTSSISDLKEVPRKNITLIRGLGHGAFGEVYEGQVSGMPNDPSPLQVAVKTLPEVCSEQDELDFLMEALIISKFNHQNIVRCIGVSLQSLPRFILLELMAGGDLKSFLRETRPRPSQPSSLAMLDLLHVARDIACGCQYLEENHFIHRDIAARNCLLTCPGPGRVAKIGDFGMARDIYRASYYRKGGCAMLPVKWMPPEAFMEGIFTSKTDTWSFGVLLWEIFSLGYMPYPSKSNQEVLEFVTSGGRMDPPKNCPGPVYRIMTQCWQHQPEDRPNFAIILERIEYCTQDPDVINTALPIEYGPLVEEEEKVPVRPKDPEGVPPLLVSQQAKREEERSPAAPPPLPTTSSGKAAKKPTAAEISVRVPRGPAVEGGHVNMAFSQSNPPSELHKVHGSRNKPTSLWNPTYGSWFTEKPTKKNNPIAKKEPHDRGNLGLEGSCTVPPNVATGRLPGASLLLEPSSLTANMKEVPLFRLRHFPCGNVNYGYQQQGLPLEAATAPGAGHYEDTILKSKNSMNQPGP
Chain of Mitogen-activated protein kinase 7 (Homo sapiens) (Q13164 2-816 limits assumed): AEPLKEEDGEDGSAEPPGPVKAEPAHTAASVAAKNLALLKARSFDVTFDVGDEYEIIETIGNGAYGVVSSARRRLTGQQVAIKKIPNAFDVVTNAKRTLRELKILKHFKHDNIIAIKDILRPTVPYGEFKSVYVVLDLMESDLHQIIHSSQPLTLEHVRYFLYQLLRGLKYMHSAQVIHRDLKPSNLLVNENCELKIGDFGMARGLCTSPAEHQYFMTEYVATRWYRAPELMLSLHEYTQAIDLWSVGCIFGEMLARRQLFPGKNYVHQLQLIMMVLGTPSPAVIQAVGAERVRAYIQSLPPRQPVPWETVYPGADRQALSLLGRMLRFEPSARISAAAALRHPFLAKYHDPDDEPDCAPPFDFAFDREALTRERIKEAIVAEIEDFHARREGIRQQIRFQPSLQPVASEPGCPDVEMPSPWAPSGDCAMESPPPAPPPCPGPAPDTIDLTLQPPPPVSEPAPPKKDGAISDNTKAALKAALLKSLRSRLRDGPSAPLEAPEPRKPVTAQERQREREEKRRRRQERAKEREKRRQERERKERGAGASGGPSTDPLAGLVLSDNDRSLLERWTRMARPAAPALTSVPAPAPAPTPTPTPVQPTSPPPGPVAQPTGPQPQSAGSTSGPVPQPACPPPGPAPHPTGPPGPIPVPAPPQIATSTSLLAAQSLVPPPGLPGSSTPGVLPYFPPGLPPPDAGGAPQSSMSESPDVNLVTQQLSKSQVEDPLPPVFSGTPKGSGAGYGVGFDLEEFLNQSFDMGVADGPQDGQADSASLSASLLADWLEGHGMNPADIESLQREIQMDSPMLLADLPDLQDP
Chain of Sodium-dependent serotonin transporter (P31645 whole entry): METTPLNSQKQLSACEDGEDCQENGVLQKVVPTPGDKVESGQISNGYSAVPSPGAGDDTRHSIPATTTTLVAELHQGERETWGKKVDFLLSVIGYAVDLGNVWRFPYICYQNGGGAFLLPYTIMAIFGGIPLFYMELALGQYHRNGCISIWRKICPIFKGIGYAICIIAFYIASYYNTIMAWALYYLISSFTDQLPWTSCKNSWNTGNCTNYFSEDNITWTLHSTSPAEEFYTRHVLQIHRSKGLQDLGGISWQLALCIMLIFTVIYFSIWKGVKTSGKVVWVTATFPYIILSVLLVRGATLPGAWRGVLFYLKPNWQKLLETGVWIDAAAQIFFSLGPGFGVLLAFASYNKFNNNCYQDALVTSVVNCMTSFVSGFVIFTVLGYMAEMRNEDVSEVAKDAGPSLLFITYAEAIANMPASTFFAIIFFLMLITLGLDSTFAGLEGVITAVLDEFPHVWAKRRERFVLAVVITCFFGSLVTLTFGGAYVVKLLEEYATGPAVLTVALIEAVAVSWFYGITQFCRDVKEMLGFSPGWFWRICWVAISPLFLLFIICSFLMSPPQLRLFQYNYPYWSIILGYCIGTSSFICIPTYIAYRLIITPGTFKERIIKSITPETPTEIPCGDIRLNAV
Chain of Tyrosine-protein kinase BTK (Q06187 whole entry): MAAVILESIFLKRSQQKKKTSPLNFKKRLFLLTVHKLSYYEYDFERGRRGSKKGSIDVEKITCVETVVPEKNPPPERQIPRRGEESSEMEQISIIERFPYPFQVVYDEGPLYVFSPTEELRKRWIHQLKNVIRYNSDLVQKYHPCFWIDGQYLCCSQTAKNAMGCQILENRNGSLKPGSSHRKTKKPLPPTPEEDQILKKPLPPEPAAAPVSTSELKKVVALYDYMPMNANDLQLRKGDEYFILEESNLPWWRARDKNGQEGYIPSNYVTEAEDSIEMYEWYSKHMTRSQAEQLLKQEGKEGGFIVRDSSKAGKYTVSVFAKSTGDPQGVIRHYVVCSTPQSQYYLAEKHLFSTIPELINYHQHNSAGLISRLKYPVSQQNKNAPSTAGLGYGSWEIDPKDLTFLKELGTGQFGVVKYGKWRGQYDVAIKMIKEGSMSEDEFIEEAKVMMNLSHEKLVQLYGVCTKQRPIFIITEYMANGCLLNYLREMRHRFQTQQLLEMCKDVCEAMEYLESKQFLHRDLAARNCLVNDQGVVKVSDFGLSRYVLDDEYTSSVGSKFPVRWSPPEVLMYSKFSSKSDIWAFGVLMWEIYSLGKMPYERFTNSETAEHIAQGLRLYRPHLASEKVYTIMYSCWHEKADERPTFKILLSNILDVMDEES
Chain of Serine/threonine-protein kinase PLK1 (P53350 whole entry): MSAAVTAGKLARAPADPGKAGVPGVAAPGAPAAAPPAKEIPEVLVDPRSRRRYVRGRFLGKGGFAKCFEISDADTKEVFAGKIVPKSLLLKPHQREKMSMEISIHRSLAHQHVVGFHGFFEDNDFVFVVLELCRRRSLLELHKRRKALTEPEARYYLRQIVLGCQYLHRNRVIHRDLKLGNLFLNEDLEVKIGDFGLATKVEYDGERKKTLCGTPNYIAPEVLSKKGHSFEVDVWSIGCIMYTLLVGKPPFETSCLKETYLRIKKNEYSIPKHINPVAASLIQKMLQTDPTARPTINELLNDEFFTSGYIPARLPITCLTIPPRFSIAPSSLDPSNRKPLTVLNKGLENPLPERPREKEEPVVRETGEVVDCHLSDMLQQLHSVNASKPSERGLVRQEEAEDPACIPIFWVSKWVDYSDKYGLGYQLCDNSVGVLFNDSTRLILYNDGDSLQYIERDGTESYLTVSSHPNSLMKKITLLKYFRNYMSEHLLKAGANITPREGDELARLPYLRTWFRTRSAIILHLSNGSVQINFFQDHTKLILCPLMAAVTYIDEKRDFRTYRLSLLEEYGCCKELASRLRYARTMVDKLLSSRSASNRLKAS

SMILES: COc1cc(Nc2nc(C)cc(-c3cnn4nc(OC)ccc34)n2)cc(C(F)(F)F)c1
% of control [1]: 87%

IC50 [2]: > 10 µM
IC50 [3]: > 30 µM
SMILES: CCC(=O)N1CC[C@H](Nc2ncnc3c2CN(c2cnc(OC)c(C(F)(F)F)c2)CC3)C1 [LENIOLISIB]

SMILES: Nc1cnc(N2CCc3cc(S(=O)(=O)Nc4c(F)cc(Cl)cc4F)cc(N4CCCC4=O)c32)nc1 [TP-020n]
% of control [4]: 100%
% of control [5]: 98%

SMILES: N#Cc1cccc(-c2c[nH]c3ncnc(N4CCOCC4)c23)c1
% of control [6]: 100%

SMILES: O[C@H]1CC[C@H](Nc2ncc3nc(Nc4c(F)cc(F)cc4F)n([C@H]4CCOC4)c3n2)CC1
% of control [7]: 94%

SMILES: C=CC(=O)Nc1ccc(C(=O)Nc2[nH]nc3c2CN(C(=O)N[C@H](CN(C)C)c2ccccc2)C3(C)C)cc1
% of engagement [8]: -7.7%
